In paper PMC11680018, “Study of Cytotoxicity of Spiro-Fused [3-Azabicyclo[3.1.0]hexane]oxindoles and Cyclopropa[a]pyrrolizidine-oxindoles Against Tumor Cell Lines” (Pharmaceuticals, 2024):
Like-named read-outs stand apart in the source and are kept apart here.

Tests used:
[1] = system: peripheral blood mononuclear cells (PBMC); assay: MTS cytotoxicity towards normal cells, PBMC; format: cell-based; conditions: Homo sapiens
Method: (§1) Cancer cell lines are valuable in vitro model systems that are widely used in cancer research and drug discovery. Their use is mainly linked to their possibility to provide for experimental purposes an unlimited source of biological material. Here, the 24 and 72 h in vitro MTS assay was used to determine the antiproliferative activity of synthesized spiro-fused cyclopropa[a]pyrrolizidine-2,3′-oxindoles and [3-azabicyclo[3.1.0]hexane]-oxindoles against human erythroleukemia (K562), acute T cell leukemia (Jurkat), cervical carcinoma (HeLa), melanoma (Sk-mel-2), breast cancer adenocarcinoma (MCF-7) as well as mouse colon carcinoma (CT26) cell lines. […] The full results of these investigations are presented in the Supporting Information Figures S1–S6. […] An evaluation of the cytotoxicity of the selected compounds towards normal cells (peripheral blood mononuclear cells) was performed additionally to understand their respective relative selectivities. The selectivity index was obtained using the ratio of measured cytotoxicity between the PBMC cells and each of the cancer cell lines, and the results are presented in Table 3.
(§2) The human erythroleukemia (K-562), cervical carcinoma (HeLa) as well as mouse colon carcinoma (CT26) cell lines were obtained from the Bank of Cell Cultures of the Institute of Cytology of the Russian Academy of Sciences; the human melanoma (Sk-mel-2) cell line was obtained from the Bank of Cell Cultures of the Institute of Cytology and Genetics, Siberian Branch of the Russian Academy of Sciences. The acute T cell leukemia (Jurkat) cell line was obtained from the Bank of Cell Cultures of the Institute of Immunology of the Russian Academy of Medical Sciences. The peripheral blood mononuclear cells (PBMC) were isolated from the blood of healthy donors. K-562, Jurkat, MCF-7, PBMC and CT26 cells were grown on RPMI medium (Hyclone, GE Healthcare Life Sciences, Logan, UT, USA) supplemented with 10% (v/v) fetal bovine serum (Hyclone, GE Healthcare Life Sciences, Logan, UT, USA) and gentamicin (Sigma-Aldrich, St. Louis, MO, USA) at 37 °C in a humidified atmosphere with 5% CO2. HeLa and Sk-mel-2 cells were cultured with the same supplements and conditions in DMEM medium (Hyclone, GE Healthcare Life Sciences, Logan, UT, USA).
(§3) To evaluate the in vitro toxicity of the compounds synthesized, cells were seeded into 96-well plates at a density of 5 × 10^3 cells per well. On the next day, the tested compounds were added to the wells at concentrations ranging from 1 to 30 μg/mL, followed by incubation for 1 and 3 days. Cell proliferation was determined by adding 20 μL of MTS reagent (BioVision, Milpitas, CA, USA) stock solution per well. The plates were incubated for 2 h at 37 °C in a humidified, 5% CO2 atmosphere. The plates were then read at 495 nm using a plate spectrophotometer (Multiskan GO, Thermo Fisher Scientific, Waltham, MA, USA). All samples were measured in triplicate.

[2] = system: acute T cell leukemia (Jurkat) cell line; assay: MTS cell proliferation assay, Jurkat; format: cell-based, human; conditions: for IC50: Homo sapiens, Jurkat, MTS; for SI (selectivity index) Jurkat: ratio of cytotoxicity PBMC / Jurkat, calculated at 72 h
Method: as §1, §2, §3

[3] = system: HeLa cells actin cytoskeleton; assay: Actin cytoskeleton staining, confocal microscopy, HeLa; format: cell-based, human; conditions: 10 μg/mL, 24 h; for HeLa cells with filopodia-like deformations: control cells 93%, lowest value over the compounds; for HeLa cells with granular actin distributed diffusely in the cytoplasm (stress fibers disappeared): maximum over the compounds
Method: It was found using confocal microscopy that incubation with spiro-fused [3-azabicyclo[3.1.0]hexane]oxindoles 4, 8, 17, 18, 22, 24 and cyclopropa[a]pyrrolizidine-2,3′-oxindole 2 led to significant changes in the HeLa cells’ actin cytoskeleton structure leading to the disappearance of stress fibers (granular actin was distributed diffusely in the cytoplasm in up to 38% of treated cells) and changes in the number of filopodia-like deformations (reduced from 93% in control cells to 64% after treatment). The impact on the Sk-mel-2 cells’ actin cytoskeleton structure was even greater: granular actin was distributed diffusely in the cytoplasm in up to 90% of treated cells while the number of filopodia-like deformations was reduced by up to 23%. Such changes in the cytoskeleton may indicate a change in the motor activity of cells, which may indicate a decrease in the ability of tumor cells to metastasize.
HeLa cells were seeded at a density of 2 × 10^5 cells per dish onto a petri dish with cover slips and incubated for 24 h. After that, cells were treated with chosen compounds (10 μg/mL) for 24 h. The medium was removed and cells were fixed with 4% paraformaldehyde (Sigma-Aldrich, St. Louis, MO, USA), washed three times with PBS, and permeabilized with 0.3% Triton-X100 (Sigma-Aldrich, St. Louis, MO, USA). The cells were rinsed three times with PBS. Actin filaments (microfilaments) were stained with rhodamine–phalloidin (Invitrogen, Carlsbad, CA, USA) at 37 °C for 15 min. The samples were rinsed three times with PBS, followed by embedding in Fluoroshield medium (Sigma-Aldrich, St. Louis, MO, USA). Cells were imaged using an Axio Observer Z1 confocal microscope (Carl Zeiss MicroImaging GmbH, Jena, Germany). In each experiment, at least 30 cells were imaged. Images were analyzed by a pathologist blinded to the treatment mode used for each group using ImageJ software, 1.52v.

[4] = system: human erythroleukemia (K562) cell line; assay: MTS cell proliferation assay, K562; format: cell-based; conditions: for IC50: Homo sapiens, MTS; for SI (selectivity index) K562: ratio of cytotoxicity PBMC / K562, calculated at 72 h
Method: as §1, §2, §3

[5] = system: cervical carcinoma (HeLa) cell line; assay: MTS cell proliferation assay, HeLa; format: cell-based, human; conditions: for IC50: Homo sapiens, HeLa, MTS; for SI (selectivity index) HeLa: ratio of cytotoxicity PBMC / HeLa, calculated at 72 h
Method: as §1, §2, §3

[6] = system: melanoma (Sk-mel-2) cell line; assay: MTS cell proliferation assay, Sk-mel-2; format: cell-based, human; conditions: for IC50: Homo sapiens, MTS; for SI (selectivity index) Sk-mel-2: ratio of cytotoxicity PBMC / Sk-mel-2, calculated at 72 h
Method: as §1, §2, §3

[7] = system: breast cancer adenocarcinoma (MCF-7) cell line; assay: MTS cell proliferation assay, MCF-7; format: cell-based, human; conditions: for IC50: Homo sapiens, MTS; for SI (selectivity index) MCF-7: ratio of cytotoxicity PBMC / MCF-7, calculated at 72 h
Method: as §1, §2, §3

[8] = system: mouse colon carcinoma (CT26) cell line; assay: MTS cell proliferation assay, CT26; format: cell-based; conditions: for IC50: Mus musculus, MTS; for SI (selectivity index) CT26: ratio of cytotoxicity PBMC / CT26, calculated at 72 h
Method: as §1, §2, §3

[9] = read-out: IC50 Jurkat 24 h, 24 h
[10] = 72 h, read-out: IC50 Jurkat 72 h
[11] = read-out: IC50 K562 24 h, K562, 24 h
[12] = K562, 72 h, read-out: IC50 K562 72 h
[13] = read-out: IC50 Sk-mel-2 24 h, Sk-mel-2, 24 h
[14] = Sk-mel-2, 72 h, read-out: IC50 Sk-mel-2 72 h
[15] = MCF7, read-out: IC50 MCF-7 24 h, MCF-7, 24 h
[16] = MCF7, MCF-7, 72 h, read-out: IC50 MCF-7 72 h
[17] = read-out: IC50 CT26 24 h, CT26, 24 h
[18] = CT26, 72 h, read-out: IC50 CT26 72 h

| Compound | IC50 ([1]; 72 h, read-out: IC50 PBMC 72 h) [µM] | IC50 ([1]; read-out: IC50 PBMC 24 h, 24 h) [µM] | IC50 [2, 9] [µM] | IC50 [2, 10] [µM] | SI (selectivity index) Jurkat [2] | HeLa cells with filopodia-like deformations [3] [%] | HeLa cells with granular actin distributed diffusely in the cytoplasm (stress fibers disappeared) [3] | IC50 [4, 11] [µM] | IC50 [4, 12] [µM] | SI (selectivity index) K562 [4] | IC50 ([5]; read-out: IC50 HeLa 24 h, 24 h) [µM] | IC50 ([5]; 72 h, read-out: IC50 HeLa 72 h) [µM] | SI (selectivity index) HeLa [5] | IC50 [6, 13] [µM] | IC50 [6, 14] [µM] | SI (selectivity index) Sk-mel-2 [6] | IC50 [7, 15] [µM] | IC50 [7, 16] [µM] | SI (selectivity index) MCF-7 [7] | IC50 [8, 17] [µM] | also measured |
| --- | --- | --- | --- | --- | --- | --- | --- | --- | --- | --- | --- | --- | --- | --- | --- | --- | --- | --- | --- | --- | --- |
| CSCCC1NC2(C(=O)Nc3ccccc32)C2(c3ccccc3)C(c3ccccc3)C12c1ccccc1 (stereo not drawn) [Compound 24] | 92 ± 11 | 113 ± 14 | 22 ± 2 | 4 ± 1 | 23 | ≥ 64 | up to 38% | > 40 | 10 ± 1 | 9 | 20 ± 2 | 8 ± 1 | 12 | > 40 | 8 ± 1 | 12 | > 40 | > 40 | 1 | > 40 | IC50 [8, 18]: > 40 µM; SI (selectivity index) CT26 [8]: 1 |
| COC(=O)C1C2(c3ccccc3)C(Cc3ccc(O)cc3)NC3(C(=O)Nc4ccccc43)C12c1ccccc1 (stereo not drawn) [Compound 17] | 112 ± 9 | 127 ± 16 | 12 ± 1 | 8 ± 1 | 15 | ≥ 64 | up to 38% | 35 ± 5 | 14 ± 1 | 8 | 31 ± 2 | 14 ± 2 | 8 | > 40 | 14 ± 2 | 8 | > 40 | > 40 | 2 | > 40 | IC50 [8, 18]: 23 ± 2 µM; SI (selectivity index) CT26 [8]: 5 |
| NC(=O)CC1NC2(C(=O)Nc3ccccc32)C2(c3ccccc3)C(c3ccccc3)C12c1ccccc1 (stereo not drawn) [Compound 18] | 12 ± 1 | 29 ± 3 | 6 ± 1 | 2 ± 1 | 6 | ≥ 64 | up to 38% | 14 ± 2 | 6 ± 1 | 2 | 23 ± 2 | 10 ± 2 | 1 | 29 ± 2 | 10 ± 1 | 1 | > 40 | 14 ± 1 | 1 | 27 ± 2 | IC50 [8, 18]: 10 ± 1 µM; SI (selectivity index) CT26 [8]: 1 |
| CC[C@H](C)C1NC2(C(=O)Nc3ccccc32)C2(c3ccccc3)C(C(=O)OC)C12c1ccccc1 (stereo partly drawn) [Compound 4] | 92 ± 9 | 174 ± 17 | 11 ± 1 | 4 ± 1 | 22 | ≥ 64 | up to 38% | 32 ± 2 | 6 ± 1 | 14 | > 40 | 9 ± 1 | 11 | > 40 | 9 ± 1 | 11 | > 40 | > 40 | 2 | > 40 | IC50 [8, 18]: 21 ± 2 µM; SI (selectivity index) CT26 [8]: 4 |
| CC(C)C1NC2(C(=O)Nc3ccccc32)C2(c3ccccc3)C(c3ccccc3)C12c1ccccc1 (stereo not drawn) [Compound 8] | 47 ± 5 | 83 ± 7 | 11 ± 1 | 2 ± 1 | 22 | ≥ 64 | up to 38% | 25 ± 1 | 6 ± 1 | 7 | > 40 | 8 ± 1 | 6 | 15 ± 1 | 8 ± 1 | 6 | > 40 | > 40 | 1 | > 40 | IC50 [8, 18]: 11 ± 1 µM; SI (selectivity index) CT26 [8]: 4 |
| O=C1Nc2ccc([N+](=O)[O-])cc2C12N1CCCC1C1(c3ccccc3)C(c3ccccc3)C12c1ccccc1 (stereo not drawn) [Compound 2] | 84 ± 8 | 121 ± 8 | 18 ± 2 | 4 ± 1 | 22 | ≥ 64 | up to 38% | 29 ± 2 | 8 ± 1 | 11 | > 40 | 12 ± 1 | 7 | 14 ± 1 | 12 ± 1 | 7 | > 40 | > 40 | 2 | > 40 | IC50 [8, 18]: 23 ± 2 µM; SI (selectivity index) CT26 [8]: 4 |
